pIC50: −log10 of the molar value. Structures can show the parent of a compound that is named as a salt.
What was measured:
HCN2 = HCN2 (Homo sapiens (Human), UniProt Q9UL51); assay: HCN2 current assay using PatchXpress 7000A; format: cell-based; conditions: PatchXpress protocol; read-out: PX HCN2 IC50
Protocol: (§1) Example 126A, Using PatchXpress 7000A
(§2) Solutions for recording HCN currents were:
The membrane voltage was then stepped back to −30 mV for a further 8 seconds.
(§3) The peak inward current measured at the end of the pulse to −110 mV (HCN1 and HCN2) or −130 mV (HCN4) was measured and any leak current subtracted to calculate the HCN current. The HCN current amplitude was measured after each control or compound addition and normalized to the control amplitude (Control A).
(§4) All experiments were performed at room temperature (approximately 22° C.).
(§5) Each test compound concentration was applied to the cell for seven (7) minutes, at which point the next cumulative concentration was applied.

HCN4 = HCN4 (Homo sapiens (Human), UniProt Q9Y3Q4); assay: HCN4 current assay using PatchXpress 7000A; format: cell-based; conditions: PatchXpress protocol; read-out: PX HCN4 IC50
Protocol: as §1, §2, §3, §4, §5

Sequence of HCN4 (Q9Y3Q4 whole entry, species assumed): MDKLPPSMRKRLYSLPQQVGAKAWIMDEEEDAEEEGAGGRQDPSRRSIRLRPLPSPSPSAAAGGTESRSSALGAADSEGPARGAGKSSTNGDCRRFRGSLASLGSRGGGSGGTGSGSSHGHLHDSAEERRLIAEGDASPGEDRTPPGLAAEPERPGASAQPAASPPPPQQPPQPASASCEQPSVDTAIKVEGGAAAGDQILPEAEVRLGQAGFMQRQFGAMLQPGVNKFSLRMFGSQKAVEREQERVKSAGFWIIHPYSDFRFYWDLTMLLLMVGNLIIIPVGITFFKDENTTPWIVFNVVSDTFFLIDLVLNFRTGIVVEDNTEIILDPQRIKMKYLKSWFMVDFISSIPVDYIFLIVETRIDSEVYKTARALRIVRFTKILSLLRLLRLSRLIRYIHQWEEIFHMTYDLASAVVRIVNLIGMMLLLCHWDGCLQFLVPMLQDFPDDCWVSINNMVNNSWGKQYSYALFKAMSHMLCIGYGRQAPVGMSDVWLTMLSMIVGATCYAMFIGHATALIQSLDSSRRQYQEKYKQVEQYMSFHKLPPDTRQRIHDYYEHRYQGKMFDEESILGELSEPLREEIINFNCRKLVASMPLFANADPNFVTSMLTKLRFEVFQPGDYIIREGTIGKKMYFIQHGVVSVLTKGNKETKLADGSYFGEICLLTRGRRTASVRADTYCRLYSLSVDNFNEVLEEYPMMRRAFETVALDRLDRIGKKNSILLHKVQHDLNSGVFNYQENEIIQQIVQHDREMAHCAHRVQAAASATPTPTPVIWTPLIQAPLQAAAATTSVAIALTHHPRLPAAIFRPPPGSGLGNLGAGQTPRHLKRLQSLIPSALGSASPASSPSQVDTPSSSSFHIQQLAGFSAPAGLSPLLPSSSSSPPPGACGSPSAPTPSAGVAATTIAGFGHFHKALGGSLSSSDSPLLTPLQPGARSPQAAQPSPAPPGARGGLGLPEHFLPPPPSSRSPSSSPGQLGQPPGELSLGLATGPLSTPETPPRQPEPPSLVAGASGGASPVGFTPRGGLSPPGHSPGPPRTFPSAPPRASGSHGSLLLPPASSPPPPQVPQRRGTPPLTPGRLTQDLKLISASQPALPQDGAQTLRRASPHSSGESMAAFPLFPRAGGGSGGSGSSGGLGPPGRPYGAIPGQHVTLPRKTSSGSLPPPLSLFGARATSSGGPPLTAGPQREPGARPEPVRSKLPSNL
Sequence of HCN2 (Q9UL51 whole entry): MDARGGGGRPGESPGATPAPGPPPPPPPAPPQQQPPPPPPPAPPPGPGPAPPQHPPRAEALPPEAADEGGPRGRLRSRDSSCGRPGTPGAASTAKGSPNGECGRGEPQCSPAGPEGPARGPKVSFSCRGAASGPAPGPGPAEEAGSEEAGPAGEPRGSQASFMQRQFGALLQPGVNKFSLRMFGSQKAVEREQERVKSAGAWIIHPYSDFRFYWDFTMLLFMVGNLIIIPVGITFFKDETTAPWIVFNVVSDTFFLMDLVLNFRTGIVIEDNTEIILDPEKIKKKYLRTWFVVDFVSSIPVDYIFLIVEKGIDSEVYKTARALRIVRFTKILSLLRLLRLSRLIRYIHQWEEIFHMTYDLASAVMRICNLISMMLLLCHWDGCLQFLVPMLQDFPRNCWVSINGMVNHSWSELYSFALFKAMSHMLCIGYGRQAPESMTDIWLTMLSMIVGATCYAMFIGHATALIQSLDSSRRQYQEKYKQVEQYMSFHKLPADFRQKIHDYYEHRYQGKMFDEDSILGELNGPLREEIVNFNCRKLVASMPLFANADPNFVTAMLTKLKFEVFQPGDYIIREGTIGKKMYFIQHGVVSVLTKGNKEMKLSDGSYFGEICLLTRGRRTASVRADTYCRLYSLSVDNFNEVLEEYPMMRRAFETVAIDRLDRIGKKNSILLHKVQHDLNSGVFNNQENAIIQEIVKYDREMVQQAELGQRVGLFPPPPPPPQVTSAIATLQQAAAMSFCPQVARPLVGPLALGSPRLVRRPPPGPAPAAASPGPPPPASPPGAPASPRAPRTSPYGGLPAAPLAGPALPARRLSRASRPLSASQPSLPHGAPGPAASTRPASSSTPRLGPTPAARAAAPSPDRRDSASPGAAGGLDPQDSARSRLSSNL

N[C@@H](Cc1ccccn1)c1cc(Br)ccc1-c1noc2ccccc12 [Example 83, (S)-1-[2-(benzo[d]isoxazol-3-yl)-5-bromophenyl]-2-(pyridine-2-yl)ethan-1-amine]
pIC50 (HCN2): 5.74
pIC50 (HCN4): < 4.52

N[C@@H](Cc1ccccn1)c1c(Br)cccc1-c1noc2ccccc12 [Example 87, (S)-1-[2-(Benzo[d]isoxazol-3-yl)-6-bromophenyl]-2-(pyridine-2-yl)ethan-1-amine hydrochloride]
pIC50 (HCN2): 5.77
pIC50 (HCN4): 4.73

N[C@@H](Cc1ccc(Br)cn1)c1ccccc1-c1noc2ccccc12 [Example 88, (S)-1-[2-(Benzo[d]isoxazol-3-yl)phenyl]-2-(5-bromopyridine-2-yl)ethan-1-amine hydrochloride]
pIC50 (HCN2): 5.57
pIC50 (HCN4): < 4.52

Cc1noc(C)c1-c1cccc(C[C@H](N)c2ccccc2-c2noc3ccccc23)n1 [Example 94, (S)-1-[2-(Benzo[d]isoxazol-3-yl)phenyl]-2-[6-(3,5-dimethylisoxazol-4-yl)pyridine-2-yl)-ethan-1-amine hydrochloride]
pIC50 (HCN2): 5.92
pIC50 (HCN4): 5.33

Cc1cccc(C[C@H](N)c2ccccc2-c2noc3cc(C#N)ccc23)n1 [Example 96, (S)-1-[2-(6-Cyanobenzo[d]isoxazol-3-yl)phenyl]-2-(6-methylpyridine-2-yl)ethan-1-amine]
pIC50 (HCN2): 5.54
pIC50 (HCN4): < 4.52

N[C@@H](Cc1cccc(CO)n1)c1ccccc1-c1noc2ccccc12 [Example 98, (S)-1-[2-(Benzo[d]isoxazol-3-yl)phenyl]-2-(6-hydroxymethylpyridine-2-yl)ethan-1-amine hydrochloride]
pIC50 (HCN2): 5.70
pIC50 (HCN4): 4.88

CS(=O)(=O)c1cccc(C[C@H](N)c2ccccc2-c2noc3ccccc23)n1 [Example 103, (S)-1-[2-(Benzo[d]isoxazol-3-yl)phenyl]-2-[6-(methylsulfonyl)pyridin-2-yl]ethan-1-amine]
pIC50 (HCN2): 5.52
pIC50 (HCN4): 4.65

NC(=O)c1cccc(C[C@H](N)c2ccccc2-c2noc3ccccc23)n1 [Example 104, (S)-6-{2-Amino-2-[2-(benzo[d]isoxazol-3-yl)phenyl]ethyl}pyridine-2-carboxamide hydrochloride]
pIC50 (HCN2): 5.59
pIC50 (HCN4): 4.98

CNC(=O)c1cccc(C[C@H](N)c2ccccc2-c2noc3ccccc23)n1 [Example 105, (S)-6-{2-Amino-2-[2-(benzo[d]isoxazol-3-yl)phenyl]ethyl}-N-methylpyridine-2-carboxamide hydrochloride]
pIC50 (HCN2): 5.38
pIC50 (HCN4): 5.21

N[C@@H](Cc1cccc(C(=O)N2CCOCC2)n1)c1ccccc1-c1noc2ccccc12 [Example 106, (S)-(6-{2-Amino-2-[2-(benzo[d]isoxazol-3-yl)phenyl]ethyl}pyridine-2-yl)(morpholino)methanone hydrochloride]
pIC50 (HCN2): 5.07
pIC50 (HCN4): < 4.52

N[C@@H](Cc1cccc(C(=O)NCC2CC2)n1)c1ccccc1-c1noc2ccccc12 [Example 107, (S)-6-{2-Amino-2-[2-(benzo[d]isoxazol-3-yl)phenyl]ethyl}-N-(cyclopropylmethylpyridine-2-carboxamide hydrochloride]
pIC50 (HCN2): 5.85
pIC50 (HCN4): 5.49

COCCNC(=O)c1cccc(C[C@H](N)c2ccccc2-c2noc3ccccc23)n1 [Example 108, (S)-6-{2-[Amino-2-(benzo[d]isoxazol-3-yl)phenyl]ethyl}-N-(2-methoxyethyl)pyridine-2-carboxamide hydrochloride]
pIC50 (HCN2): 5.46
pIC50 (HCN4): 5.29

CNC(=O)Nc1cccc(C[C@H](N)c2ccccc2-c2noc3ccccc23)n1 [Example 122, (S)-1-(6-{2-Amino-2-[2-(benzo[d]isoxazol-3-yl)phenyl]ethyl}pyridine-2-yl)-3-methylurea hydrochloride]
pIC50 (HCN2): 5.02
pIC50 (HCN4): 4.55

CS(=O)(=O)Nc1cccc(C[C@H](N)c2ccccc2-c2noc3ccccc23)n1 [Example 123, (S)—N-(6-{2-Amino-2-[2-(benzo[d]isoxazol-3-yl)phenyl]ethyl}pyridine-2-yl)methanesulfonamide hydrochloride]
pIC50 (HCN2): 5.23
pIC50 (HCN4): < 4.52
